From patent US12139475B2, “2-oxindole compounds” (CHEMOCENTRYX, INC., priority 2016, dated 2024)

Target: T1, CCR(9) (Homo sapiens, UniProt P51686)
T1 construct: MOLT-4 cells were collected by centrifugation at 400×g at room temperature, then suspended at 50 million/ml in human serum; host or cells: MOLT-4
T1 sequence (P51686 1-369): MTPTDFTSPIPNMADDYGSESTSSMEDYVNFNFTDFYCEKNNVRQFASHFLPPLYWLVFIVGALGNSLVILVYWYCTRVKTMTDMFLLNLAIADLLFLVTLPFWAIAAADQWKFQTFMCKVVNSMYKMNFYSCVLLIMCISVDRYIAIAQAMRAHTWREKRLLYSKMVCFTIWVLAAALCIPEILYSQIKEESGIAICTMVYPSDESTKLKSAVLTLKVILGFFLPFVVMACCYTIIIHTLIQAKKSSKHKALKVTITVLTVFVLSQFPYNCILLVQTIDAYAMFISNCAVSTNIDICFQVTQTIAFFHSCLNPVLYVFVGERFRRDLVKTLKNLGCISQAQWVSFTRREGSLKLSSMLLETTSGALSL
Assay: Serum chemotaxis assay (MOLT-4 cells, TECK-induced migration, ChemoTX)
Type: cell-based
Conditions: MOLT-4 cells in human serum, migration to recombinant human TECK, 90 minutes at 37° C.
Procedure: MOLT-4 cells were obtained from the American Type Culture Collection (Manassas, VA) and cultured in RPMI tissue culture medium supplemented with 10% fetal calf serum (FCS) in a humidified 5% CO2 incubator at 37° C. Recombinant human chemokine proteins TECK was obtained from R&D Systems (Minneapolis, MN). ChemoTX™ chemotaxis microchambers were purchased from Neuro Probe (Gaithersburg, MD). CyQUANT™ cell proliferation kits were purchased from Molecular Probes (Eugene, Oregon). Calcium indicator dye Fluo-4 AM was purchased from Molecular Devices (Mountain View, CA).
A serum chemotaxis assay was used to determine the efficacy of potential receptor antagonists at blocking the migration mediated through chemokine receptors, such as CCR(9). This assay was performed using the ChemoTX® microchamber system with a 5-μm pore-sized polycarbonate membrane. MOLT-4 cells were collected by centrifugation at 400×g at room temperature, then suspended at 50 million/ml in human serum, containing 50 mM HEPES (final pH of 7.2). The compound being tested or an equivalent volume of its solvent (DMSO) was then added to the cell/serum mixture at a final DMSO concentration of 0.125% (v/v), and this mixture was then incubated together at 37° C. for one hour. Separately, recombinant human TECK was diluted with chemotaxis buffer (HBSS+0.1% BSA), generally spanning a range from 0.1 nM to 500 nM, after which 29 μl of diluted chemokine was placed in the lower wells of the ChemoTX® plate. The 5-μm (pore size) polycarbonate membrane was placed onto the plate, and 20 μL of the cell/compound mixture was transferred onto each well of the membrane. The plates were incubated at 37° C. for 90 minutes, after which the polycarbonate membranes were removed and 5 μl of the DNA-intercalating agent CyQUANT (Invitrogen, Carlsbad, CA) was added to the lower wells. The amount of fluorescence, corresponding to the number of migrated cells, was measured using a Spectrafluor Plus plate reader (TECAN, San Jose, CA).
The A2 values were calculated from the following equation, comparing the efficacy of the test compound with that of the DMSO-only control at equi-active chemokine levels: Log(A2)=log[drug(M)]−log[(A′/A)−1] where A reflects the potency of the agonist in the absence of antagonist and A′ reflects the potency of the agonist in the presence of antagonist at a given concentration of drug ([drug(M)]). In Vivo Efficacy Models for Human IBD

Row | Compound | Chemotaxis A2
1 | CC1(C)CCc2cc(C3(C)C(=O)N(c4cccc(C(=O)O)c4)c4cc(Cl)ccc43)ccc2O1 (centres unmarked) | ++ (500 nM > A2 ≥ 100 nM)
2 | CC(C)(C)c1ccc(C2(C)C(=O)N(c3cccc(C(=O)O)c3)c3ccc(Cl)cc32)cc1F (centres unmarked) | +++ (100 nM > A2)
3 | Cc1ccc2c(c1)C(C)(c1ccc(C(C)(C)C)cc1)C(=O)N2c1cccc(C(=O)O)c1 (centres unmarked) | ++ (500 nM > A2 ≥ 100 nM)
4 | Cc1ccc2c(c1)C(C)(c1ccc(C(C)(C)C)cc1)C(=O)N2c1ccc(C(=O)O)cc1 (centres unmarked) | ++ (500 nM > A2 ≥ 100 nM)
5 | Cc1cc(C(C)(C)C)ccc1C1(C)C(=O)N(c2ccc(C(=O)O)cc2)c2ccc(Cl)cc21 (centres unmarked) | ++ (500 nM > A2 ≥ 100 nM)
6 | CC(C)(C)c1ccc([C@]2(C)C(=O)N(c3ccc(F)c(C(=O)O)c3)c3ccc(Cl)cc32)cc1 | +++ (100 nM > A2)
7 | Cc1ccc(N2C(=O)[C@@](C)(c3ccc(C(C)(C)C)cc3)c3cc(Cl)ccc32)cc1C(=O)O | +++ (100 nM > A2)
8 | Cc1ccc(N2C(=O)[C@@](C)(c3ccc4c(c3)CCC(C)(C)O4)c3cc(Cl)ccc32)cc1C(=O)O | +++ (100 nM > A2)
9 | CC1(C)CCc2cc([C@]3(C)C(=O)N(c4ccc(C(=O)O)cc4)c4ccc(Cl)cc43)ccc2O1 | +++ (100 nM > A2)
10 | CC1(C)CCc2cc([C@]3(C)C(=O)N(c4ccc(F)c(C(=O)O)c4)c4ccc(Cl)cc43)ccc2O1 | +++ (100 nM > A2)
11 | CC1(C)CCc2cc([C@]3(C)C(=O)N(c4ccc(Cl)c(C(=O)O)c4)c4ccc(Cl)cc43)ccc2O1 | +++ (100 nM > A2)
12 | CC1(C)CCc2cc([C@]3(C)C(=O)N(c4ccc(C(=O)O)c(Cl)c4)c4ccc(Cl)cc43)ccc2O1 | +++ (100 nM > A2)
13 | CC1(C)CCc2cc([C@]3(C)C(=O)N(c4cccc(CC(=O)O)c4)c4ccc(Cl)cc43)ccc2O1 | +++ (100 nM > A2)
14 | Cc1ccc2c(c1)[C@](C)(c1ccc3c(c1)CCC(C)(C)O3)C(=O)N2c1cccc(C(=O)O)c1 | +++ (100 nM > A2)
15 | Cc1ccc2c(c1)[C@](C)(c1ccc3c(c1)CCC(C)(C)O3)C(=O)N2c1ccc(C(=O)O)cc1 | +++ (100 nM > A2)
16 | CC1(C)CCc2cc([C@]3(C)C(=O)N(c4ccc(OC(F)(F)F)c(C(=O)O)c4)c4ccc(Cl)cc43)ccc2O1 | +++ (100 nM > A2)
17 | CC1(C)CCc2cc([C@]3(C)C(=O)N(c4ccc(C(=O)O)c(F)c4)c4ccc(Cl)cc43)ccc2O1 | +++ (100 nM > A2)
18 | Cc1cc(N2C(=O)[C@@](C)(c3ccc4c(c3)CCC(C)(C)O4)c3cc(Cl)ccc32)ccc1C(=O)O | +++ (100 nM > A2)
19 | CC1(C)CCc2cc([C@]3(C)C(=O)N(c4ccc(CCC(=O)O)cc4)c4ccc(Cl)cc43)ccc2O1 | +++ (100 nM > A2)
20 | CCc1ccc(N2C(=O)[C@@](C)(c3ccc4c(c3)CCC(C)(C)O4)c3cc(Cl)ccc32)cc1C(=O)O | +++ (100 nM > A2)
21 | COc1cc(N2C(=O)[C@@](C)(c3ccc4c(c3)CCC(C)(C)O4)c3cc(Cl)ccc32)ccc1C(=O)O | +++ (100 nM > A2)
22 | CC1(C)CCc2cc([C@]3(C)C(=O)N(c4cccc(CCC(=O)O)c4)c4ccc(Cl)cc43)ccc2O1 | +++ (100 nM > A2)
23 | CC1(C)CCc2cc([C@]3(C)C(=O)N(Cc4cccc(C(=O)O)c4)c4ccc(Cl)cc43)ccc2O1 | +++ (100 nM > A2)
24 | CC(C(=O)O)c1cccc(N2C(=O)[C@@](C)(c3ccc4c(c3)CCC(C)(C)O4)c3cc(Cl)ccc32)c1 (some centres unmarked) | +++ (100 nM > A2)
25 | CC1(C)CCc2cc([C@]3(C)C(=O)N(Cc4ccccc4C(=O)O)c4ccc(Cl)cc43)ccc2O1 | +++ (100 nM > A2)

Row | Compound | Chemotaxis A2
26 | CC1(C)CCc2cc([C@]3(C)C(=O)N(c4cccc(C(C)(C)C(=O)O)c4)c4ccc(Cl)cc43)ccc2O1 | +++ (100 nM > A2)
27 | COc1ccc(CN2C(=O)[C@@](C)(c3ccc4c(c3)CCC(C)(C)O4)c3cc(Cl)ccc32)cc1C(=O)O | +++ (100 nM > A2)
28 | CC(c1cccc(C(=O)O)c1)N1C(=O)[C@@](C)(c2ccc3c(c2)CCC(C)(C)O3)c2cc(Cl)ccc21 (some centres unmarked) | +++ (100 nM > A2)
29 | CC1(C)CCc2cc([C@]3(C)C(=O)N(Cc4ccc(F)c(C(=O)O)c4)c4ccc(Cl)cc43)ccc2O1 | +++ (100 nM > A2)
30 | Cc1ccc(CN2C(=O)[C@@](C)(c3ccc4c(c3)CCC(C)(C)O4)c3cc(Cl)ccc32)cc1C(=O)O | +++ (100 nM > A2)
31 | Cc1ccc(CN2C(=O)[C@@](C)(c3ccc4c(c3)CCC(C)(C)O4)c3cc(Cl)ccc32)c(C(=O)O)c1 | +++ (100 nM > A2)
32 | CC1(C)CCc2cc([C@]3(C)C(=O)N(c4cccc(OCC(=O)O)c4)c4ccc(Cl)cc43)ccc2O1 | +++ (100 nM > A2)
33 | CC1(C)CCc2cc([C@]3(C)C(=O)N(Cc4ccc(F)cc4C(=O)O)c4ccc(Cl)cc43)ccc2O1 | +++ (100 nM > A2)
34 | COc1ccc(CN2C(=O)[C@@](C)(c3ccc4c(c3)CCC(C)(C)O4)c3cc(Cl)ccc32)c(C(=O)O)c1 | +++ (100 nM > A2)
35 | CC1(C)CCc2cc([C@]3(C)C(=O)N(c4ccc(OCC(=O)O)cc4)c4ccc(Cl)cc43)ccc2O1 | +++ (100 nM > A2)
36 | CC1(C)CCc2cc([C@]3(C)C(=O)N(c4ccc(CCCC(=O)O)cc4)c4ccc(Cl)cc43)ccc2O1 | +++ (100 nM > A2)
37 | CCOc1ccc(N2C(=O)[C@@](C)(c3ccc4c(c3)CCC(C)(C)O4)c3cc(Cl)ccc32)cc1C(=O)O | +++ (100 nM > A2)
38 | CC(C)Oc1ccc(N2C(=O)[C@@](C)(c3ccc4c(c3)CCC(C)(C)O4)c3cc(Cl)ccc32)cc1C(=O)O | +++ (100 nM > A2)
39 | CC1(C)CCc2cc([C@]3(C)C(=O)N(Cc4ccc(Cl)cc4C(=O)O)c4ccc(Cl)cc43)ccc2O1 | +++ (100 nM > A2)
40 | Cc1cc(CN2C(=O)[C@@](C)(c3ccc4c(c3)CCC(C)(C)O4)c3cc(Cl)ccc32)ccc1C(=O)O | +++ (100 nM > A2)
41 | Cc1ccc(C(=O)O)c(CN2C(=O)[C@@](C)(c3ccc4c(c3)CCC(C)(C)O4)c3cc(Cl)ccc32)c1 | +++ (100 nM > A2)
42 | Cc1cccc(CN2C(=O)[C@@](C)(c3ccc4c(c3)CCC(C)(C)O4)c3cc(Cl)ccc32)c1C(=O)O | +++ (100 nM > A2)
43 | COc1cc(C(=O)O)cc(N2C(=O)[C@@](C)(c3ccc4c(c3)CCC(C)(C)O4)c3cc(Cl)ccc32)c1 | +++ (100 nM > A2)
44 | Cc1cc(C(=O)O)cc(N2C(=O)[C@@](C)(c3ccc4c(c3)CCC(C)(C)O4)c3cc(Cl)ccc32)c1 | +++ (100 nM > A2)
45 | CC1(C)CCc2cc([C@]3(C)C(=O)N(c4ccc(C(F)(F)F)c(C(=O)O)c4)c4ccc(Cl)cc43)ccc2O1 | +++ (100 nM > A2)
46 | Cc1c(CN2C(=O)[C@@](C)(c3ccc4c(c3)CCC(C)(C)O4)c3cc(Cl)ccc32)cccc1C(=O)O | +++ (100 nM > A2)
47 | Cc1cccc(C(=O)O)c1CN1C(=O)[C@@](C)(c2ccc3c(c2)CCC(C)(C)O3)c2cc(Cl)ccc21 | +++ (100 nM > A2)
48 | CC1(C)CCc2cc([C@]3(C)C(=O)N(c4ccccc4CC(=O)O)c4ccc(Cl)cc43)ccc2O1 | +++ (100 nM > A2)
49 | CC(C)COc1ccc(N2C(=O)[C@@](C)(c3ccc4c(c3)CCC(C)(C)O4)c3cc(Cl)ccc32)cc1C(=O)O | +++ (100 nM > A2)
50 | CC1(C)CCc2cc([C@]3(C)C(=O)N(Cc4cc(Cl)ccc4C(=O)O)c4ccc(Cl)cc43)ccc2O1 | +++ (100 nM > A2)
